According to patent US20240101528A1, “SUBSTITUTED PYRAZOLO PIPERIDINE CARBOXYLIC ACIDS” (BAYER AKTIENGESELLSCHAFT, priority 2020, published 2024):
Where a name gives a salt, the structure may show the parent alone.

Target: T1, recombinant guanylate cyclase reporter cell line (Rattus norvegicus, UniProt P20595)
T1 construct: expressed in transfected cells
T1 sequence (P20595 1-619): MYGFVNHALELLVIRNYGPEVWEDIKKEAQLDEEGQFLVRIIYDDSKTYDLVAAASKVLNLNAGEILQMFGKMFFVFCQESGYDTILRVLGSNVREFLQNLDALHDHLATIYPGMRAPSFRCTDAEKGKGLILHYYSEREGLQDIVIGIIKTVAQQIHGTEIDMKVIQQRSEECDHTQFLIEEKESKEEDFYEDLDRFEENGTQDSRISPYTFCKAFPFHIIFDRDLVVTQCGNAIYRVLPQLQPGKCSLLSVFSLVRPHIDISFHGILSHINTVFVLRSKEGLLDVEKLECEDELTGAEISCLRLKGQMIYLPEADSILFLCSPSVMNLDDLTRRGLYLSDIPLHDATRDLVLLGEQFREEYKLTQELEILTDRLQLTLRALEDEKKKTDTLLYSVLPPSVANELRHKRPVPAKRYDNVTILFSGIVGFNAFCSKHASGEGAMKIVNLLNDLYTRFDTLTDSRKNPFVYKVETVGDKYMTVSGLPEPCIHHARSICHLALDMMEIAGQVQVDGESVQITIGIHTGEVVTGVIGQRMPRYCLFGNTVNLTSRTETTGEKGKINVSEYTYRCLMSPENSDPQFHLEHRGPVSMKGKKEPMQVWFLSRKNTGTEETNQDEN
T1 sequence (P19686 1-690 partner): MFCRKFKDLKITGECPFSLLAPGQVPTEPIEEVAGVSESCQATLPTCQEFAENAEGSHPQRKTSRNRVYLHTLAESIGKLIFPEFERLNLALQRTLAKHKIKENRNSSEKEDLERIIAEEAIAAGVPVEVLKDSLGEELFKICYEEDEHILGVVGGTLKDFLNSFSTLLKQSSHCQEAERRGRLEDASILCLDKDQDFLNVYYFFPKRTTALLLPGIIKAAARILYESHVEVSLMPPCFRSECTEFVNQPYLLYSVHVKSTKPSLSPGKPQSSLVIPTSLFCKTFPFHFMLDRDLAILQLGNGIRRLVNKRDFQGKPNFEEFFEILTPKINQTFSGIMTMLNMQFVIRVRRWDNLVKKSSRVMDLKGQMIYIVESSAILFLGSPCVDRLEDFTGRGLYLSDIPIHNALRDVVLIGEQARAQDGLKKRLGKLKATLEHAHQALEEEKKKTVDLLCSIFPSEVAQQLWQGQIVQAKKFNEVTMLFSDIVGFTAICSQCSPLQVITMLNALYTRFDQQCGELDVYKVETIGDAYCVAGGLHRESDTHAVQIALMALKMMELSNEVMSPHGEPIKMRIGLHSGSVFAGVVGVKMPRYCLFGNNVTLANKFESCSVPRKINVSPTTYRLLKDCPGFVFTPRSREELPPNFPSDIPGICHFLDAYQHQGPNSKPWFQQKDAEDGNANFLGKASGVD
Assay: Effect on a recombinant guanylate cyclase reporter cell line
Type: cell-based
Settings: for EC50: half maximal effective concentration; for MEC: minimum effective concentration
Procedure: B-1. Effect on a Recombinant Guanylate Cyclase Reporter Cell Line
The cellular activity of the compounds according to the invention was determined using a recombinant guanylate cyclase reporter cell line, as described in F. Wunder et al., Anal. Biochem. 339, 104-112 (2005).

EC50 [nM] | MEC [nM] | SMILES
2.8 | 0.3 | O=C(O)c1cnn(C2CCCN(c3cc(Cl)ccc3-c3ccc(N4CCN(CC5CC5(F)F)CC4)cc3)C2)c1C(F)F (mixture of isomers) [Example 27, 1-{1-[4-Chloro-4′-(4-{[2,2-difluorocyclopropyl]methyl}piperazin-1-yl)[biphenyl]-2-yl]piperidin-3-yl}-5-(difluoromethyl)-1H-pyrazole-4-carboxylic acid hydrochloride (Diastereomeric mixture 2)]
2.7 | 0.3 | O=C(O)c1cnn(C2CCCN(c3cc(Cl)ccc3-c3ccc(N4CCN(CC5CC5F)CC4)cc3)C2)c1C(F)F (mixture of isomers) [Example 32, 1-[1-[5-chloro-2-[4-[4-[(trans-2-fluorocyclopropyl)methyl]piperazin-1-yl]phenyl]phenyl]-3-piperidyl]-5-(difluoromethyl)pyrazole-4-carboxylic acid hydrochloride (Diastereoisomeric mixture 2)]
7.1 | 1.0 | O=C(O)c1cnn(C2CCCN(c3cc(Cl)ccc3-c3ccc(N4CCN(CC5CC5C(F)(F)F)CC4)cc3)C2)c1C(F)F (mixture of isomers) [Example 38, 1-{1-[4-Chloro-4′-(4-{[cis-2-(trifluoromethyl)cyclopropyl]methyl}piperazin-1-yl) [biphenyl]-2-yl]piperidin-3-yl}-5-(difluoromethyl)-1H-pyrazole-4-carboxylic acid hydrochloride (Diastereoisomeric Mixture 1)]
14.5 | 1.0 | O=C(O)c1cnn(C2CCCN(c3cc(Cl)ccc3-c3ccc(N4CCN(CC5CC5C(F)(F)F)CC4)cc3)C2)c1C(F)F (mixture of isomers) [Example 39, 1-{1-[4-Chloro-4′-(4-{[cis-2-(trifluoromethyl)cyclopropyl]methyl}piperazin-1-yl) [biphenyl]-2-yl]piperidin-3-yl}-5-(difluoromethyl)-1H-pyrazole-4-carboxylic acid hydrochloride (Diastereomeric Mixture 2)]
8.3 | 1.0 | O=C(O)c1cnn(C2CCCN(c3cc(Cl)ccc3-c3ccc(N4CCN(CC5CC56CC6)CC4)cc3)C2)c1C(F)F (mixture of isomers) [Example 41, 1-[1-[5-Chloro-2-[4-[4-(spiro[2.2]pentan-2-ylmethyl)piperazin-1-yl]phenyl]phenyl]-3-piperidyl]-5-(difluoromethyl)pyrazole-4-carboxylic acid hydrochloride (Diastereomeric mixture 2)]
0.8 | 0.3 | O=C(O)c1cnn(C2CCCN(c3cc(Cl)ccc3-c3ccc(N4CCN(CC5CC5(F)F)CC4)cc3)C2)c1C(F)F (single isomer, unassigned; diastereomer 1) [Example 28, 1-{1-[4-Chloro-4′-(4-{[2,2-difluorocyclopropyl]methyl}piperazin-1-yl)[biphenyl]-2-yl]piperidin-3-yl}-5-(difluoromethyl)-1H-pyrazole-4-carboxylic acid hydrochloride (Diastereomer 1)]
2 | 0.3 | O=C(O)c1cnn(C2CCCN(c3cc(Cl)ccc3-c3ccc(N4CCN(CC5CC5(F)F)CC4)cc3)C2)c1C(F)F (single isomer, unassigned; diastereomer 2) [Example 29, 1-{1-[4-Chloro-4′-(4-{[2,2-difluorocyclopropyl]methyl}piperazin-1-yl)[biphenyl]-2-yl]piperidin-3-yl}-5-(difluoromethyl)-1H-pyrazole-4-carboxylic acid hydrochloride (Diastereomer 2)]
2 | 0.3 | O=C(O)c1cnn(C2CCCN(c3cc(Cl)ccc3-c3ccc(N4CCN(CC5CC5(F)F)CC4)cc3)C2)c1C(F)F (single isomer, unassigned; diastereomer 3) [Example 30, 1-{1-[4-Chloro-4′-(4-{[2,2-difluorocyclopropyl]methyl}piperazin-1-yl)[biphenyl]-2-yl]piperidin-3-yl}-5-(difluoromethyl)-1H-pyrazole-4-carboxylic acid hydrochloride (Diastereomer 3)]
4.1 | 0.3 | O=C(O)c1cnn(C2CCCN(c3cc(Cl)ccc3-c3ccc(N4CCN(CC5CC5F)CC4)cc3)C2)c1C(F)F (single isomer, unassigned; diastereomer 3) [Example 33, 1-[1-[5-Chloro-2-[4-[4-[(trans-2-fluorocyclopropyl)methyl]piperazin-1-yl]phenyl]phenyl]-3-piperidyl]-5-(difluoromethyl)pyrazole-4-carboxylic acid hydrochloride (Diastereomer 3)]
5.1 | 1.0 | O=C(O)c1cnn(C2CCCN(c3cc(Cl)ccc3-c3ccc(N4CCN(CC5CC5(F)F)CC4)cc3)C2)c1C(F)F (single isomer, unassigned; diastereomer 4) [Example 31, 1-{1-[4-Chloro-4′-(4-{[2,2-difluorocyclopropyl]methyl}piperazin-1-yl)[biphenyl]-2-yl]piperidin-3-yl}-5-(difluoromethyl)-1H-pyrazole-4-carboxylic acid hydrochloride (Diastereomer 4)]
3.4 | 0.3 | O=C(O)c1cnn(C2CCCN(c3cc(Cl)ccc3-c3ccc(N4CCN(CC5CC5F)CC4)cc3)C2)c1C(F)F (single isomer, unassigned; diastereomer 4) [Example 34, 1-[1-[5-Chloro-2-[4-[4-[(trans-2-fluorocyclopropyl)methyl]piperazin-1-yl]phenyl]phenyl]-3-piperidyl]-5-(difluoromethyl)pyrazole-4-carboxylic acid hydrochloride (Diastereomer 4)]
96.5 | 10.0 | CN1CCN(c2ccc(-c3ccc(Cl)cc3N3CCCC(n4ncc(C(=O)O)c4C(F)F)C3)cc2)CC1 (single isomer, unassigned; enantiomer 1) [Example 1, 1-{1-[4-Chloro-4′-(4-methylpiperazin-1-yl)[biphenyl]-2-yl]piperidin-3-yl}-5-(difluoromethyl)-1H-pyrazole-4-carboxylic acid hydrochloride (Enantiomer 1)]
24.6 | 3.0 | CCN1CCN(c2ccc(-c3ccc(Cl)cc3N3CCCC(n4ncc(C(=O)O)c4C(F)F)C3)cc2)CC1 (single isomer, unassigned; enantiomer 1) [Example 3, 1-{1-[4-Chloro-4′-(4-ethylpiperazin-1-yl)[biphenyl]-2-yl]piperidin-3-yl}-5-(difluoromethyl)-1H-pyrazole-4-carboxylic acid hydrochloride (Enantiomer 1)]
24.5 | 3.0 | O=C(O)c1cnn(C2CCCN(c3cc(Cl)ccc3-c3ccc(N4CCN(C5CC5)CC4)cc3)C2)c1C(F)F (single isomer, unassigned; enantiomer 1) [Example 8, 1-{1-[4-Chloro-4′-(4-cyclopropylpiperazin-1-yl)[biphenyl]-2-yl]piperidin-3-yl}-5-(difluoromethyl)-1H-pyrazole-4-carboxylic acid hydrochloride (Enantiomer 1)]
